From ChEMBL document CHEMBL1201862, “PubChem BioAssay data set” (2004)
Where “and” joins values, the source holds several entries; their conditions need not be identical. Equal values may be shown once. Calls of active or inactive are those of the source.

Key:
[1] = molecular target: Cytochrome P450 2D6 (Homo sapiens, UniProt P10635);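 further: CYP2D6 member of a cytochrome P450 panel assay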
[2] = molecular target: Cytochrome P450 2C19 (Homo sapiens, UniProt P33261); test: Cytochrome panel assay with activity outcomes. Panel member name: p450-cyp2c19 Compounds with AC50 equal or less than 10 uM are considered active; type: functional
[3] = molecular target: T1, Cytochrome P450 1A2 (Homo sapiens, UniProt P05177);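 further: PubChem cytochrome P450 panel assay, CYP1A2 panel member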
T1 sequence (P05177 whole entry): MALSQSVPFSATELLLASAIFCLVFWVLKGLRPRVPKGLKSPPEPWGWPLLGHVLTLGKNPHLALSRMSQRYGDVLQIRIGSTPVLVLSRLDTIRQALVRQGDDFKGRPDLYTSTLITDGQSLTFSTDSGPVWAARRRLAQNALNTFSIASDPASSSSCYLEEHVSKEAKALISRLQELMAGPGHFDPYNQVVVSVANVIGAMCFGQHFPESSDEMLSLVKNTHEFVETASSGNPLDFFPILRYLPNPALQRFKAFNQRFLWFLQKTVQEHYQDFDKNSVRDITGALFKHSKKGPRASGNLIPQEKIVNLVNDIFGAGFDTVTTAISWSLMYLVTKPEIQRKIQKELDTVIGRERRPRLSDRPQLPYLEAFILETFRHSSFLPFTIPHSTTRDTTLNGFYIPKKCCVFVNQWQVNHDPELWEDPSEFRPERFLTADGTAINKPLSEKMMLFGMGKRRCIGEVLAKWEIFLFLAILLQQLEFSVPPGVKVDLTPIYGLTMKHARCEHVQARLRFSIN

[4] = molecular target: Cytochrome P450 2C9 (Homo sapiens, UniProt P11712)
[5] = molecular target: T2, Heat shock factor protein 1 (Mus musculus, UniProt P38532); test: inhibition of MG132-induced HSE-luciferase signal, confirmation, cell-based, NIH3T3, luminescence, dose retest (AID 2382); type: functional;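 further: NIH3T3 fibroblasts with HSF1-driven luciferase reporter stressed by proteasome inhibitor MG132; luminescence from HSF1-driven luciferase expression after 8 hours of MG132 stress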
T2 sequence (P38532 whole entry): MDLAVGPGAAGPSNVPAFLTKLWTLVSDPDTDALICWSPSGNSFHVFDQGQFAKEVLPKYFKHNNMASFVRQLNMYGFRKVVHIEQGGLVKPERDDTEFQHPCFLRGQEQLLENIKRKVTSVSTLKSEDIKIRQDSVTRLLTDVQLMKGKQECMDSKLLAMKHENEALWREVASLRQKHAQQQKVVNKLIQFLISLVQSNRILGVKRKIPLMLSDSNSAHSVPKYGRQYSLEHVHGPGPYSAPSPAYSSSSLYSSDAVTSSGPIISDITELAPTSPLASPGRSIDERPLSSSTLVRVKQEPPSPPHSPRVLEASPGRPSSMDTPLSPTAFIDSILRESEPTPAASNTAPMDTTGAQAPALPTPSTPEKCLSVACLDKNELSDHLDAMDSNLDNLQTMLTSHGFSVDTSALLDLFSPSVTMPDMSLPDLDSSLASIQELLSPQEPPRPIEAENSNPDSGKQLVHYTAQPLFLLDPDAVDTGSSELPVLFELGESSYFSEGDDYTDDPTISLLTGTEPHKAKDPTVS

[6] = molecular target: Cytochrome P450 3A4 (Homo sapiens, UniProt P08684);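 further: CYP3A4 tested as one member of a cytochrome P450 panel screen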
[7] = inhibitors of intracellular T. cruzi replication, confirmation, NIH3T3 host cells, beta-gal luminescence (AID 2044); type: functional, cell-based;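 further: intracellular parasites grown in NIH/3T3 mouse fibroblasts as host cells; luminescent beta-galactosidase reporter signal from transgenic T. cruzi replicating inside host cells; inhibitors lower the luminescence signal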
[8] = cytotoxicity toward NIH3T3 fibroblasts, dose response, counter-screen, cell-based, ATP luminescence, mouse fibroblasts (AID 2010); type: functional;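 further: cells exposed to compound for about 90 hours before reading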

Cytochrome P450 2C9, sequence (P11712 whole entry): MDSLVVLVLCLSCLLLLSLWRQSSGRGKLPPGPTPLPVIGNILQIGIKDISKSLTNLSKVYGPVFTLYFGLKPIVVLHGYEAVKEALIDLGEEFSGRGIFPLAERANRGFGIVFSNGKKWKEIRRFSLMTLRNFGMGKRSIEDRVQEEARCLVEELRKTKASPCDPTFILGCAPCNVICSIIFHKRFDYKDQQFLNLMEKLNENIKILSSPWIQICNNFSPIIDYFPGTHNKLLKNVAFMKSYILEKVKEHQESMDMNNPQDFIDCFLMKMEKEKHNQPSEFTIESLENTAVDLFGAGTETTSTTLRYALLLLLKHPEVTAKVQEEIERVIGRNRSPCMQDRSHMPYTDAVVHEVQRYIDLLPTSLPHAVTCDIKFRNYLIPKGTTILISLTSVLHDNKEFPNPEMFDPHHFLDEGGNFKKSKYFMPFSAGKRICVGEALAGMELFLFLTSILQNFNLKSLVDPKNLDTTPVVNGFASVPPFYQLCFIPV
Cytochrome P450 3A4, sequence (P08684 whole entry): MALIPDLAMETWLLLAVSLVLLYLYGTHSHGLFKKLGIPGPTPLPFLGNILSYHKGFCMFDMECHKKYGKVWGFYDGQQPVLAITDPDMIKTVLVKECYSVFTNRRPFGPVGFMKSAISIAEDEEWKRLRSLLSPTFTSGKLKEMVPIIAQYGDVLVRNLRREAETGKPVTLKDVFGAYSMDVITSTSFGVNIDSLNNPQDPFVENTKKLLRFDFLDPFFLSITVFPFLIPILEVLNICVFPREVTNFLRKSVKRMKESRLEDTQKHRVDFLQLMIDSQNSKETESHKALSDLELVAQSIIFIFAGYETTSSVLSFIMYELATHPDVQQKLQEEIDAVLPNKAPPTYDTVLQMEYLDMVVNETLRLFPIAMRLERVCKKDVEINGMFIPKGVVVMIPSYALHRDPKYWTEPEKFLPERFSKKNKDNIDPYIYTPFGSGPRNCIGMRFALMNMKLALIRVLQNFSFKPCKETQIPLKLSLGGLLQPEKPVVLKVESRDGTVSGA
Cytochrome P450 2D6, sequence (P10635 whole entry): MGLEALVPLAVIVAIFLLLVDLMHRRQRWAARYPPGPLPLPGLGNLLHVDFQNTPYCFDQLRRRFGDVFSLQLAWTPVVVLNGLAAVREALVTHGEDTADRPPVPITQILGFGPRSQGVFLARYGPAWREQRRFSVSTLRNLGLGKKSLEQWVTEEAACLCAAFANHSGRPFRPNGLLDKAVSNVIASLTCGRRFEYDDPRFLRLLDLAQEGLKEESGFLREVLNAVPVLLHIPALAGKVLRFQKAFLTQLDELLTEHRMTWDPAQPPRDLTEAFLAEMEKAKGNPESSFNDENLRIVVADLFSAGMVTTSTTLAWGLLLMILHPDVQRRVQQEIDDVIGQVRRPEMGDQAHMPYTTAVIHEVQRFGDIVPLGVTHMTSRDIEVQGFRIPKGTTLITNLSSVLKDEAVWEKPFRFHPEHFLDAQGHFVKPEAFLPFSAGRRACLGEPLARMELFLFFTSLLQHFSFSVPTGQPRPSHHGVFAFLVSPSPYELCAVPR
Cytochrome P450 2C19, sequence (P33261 whole entry): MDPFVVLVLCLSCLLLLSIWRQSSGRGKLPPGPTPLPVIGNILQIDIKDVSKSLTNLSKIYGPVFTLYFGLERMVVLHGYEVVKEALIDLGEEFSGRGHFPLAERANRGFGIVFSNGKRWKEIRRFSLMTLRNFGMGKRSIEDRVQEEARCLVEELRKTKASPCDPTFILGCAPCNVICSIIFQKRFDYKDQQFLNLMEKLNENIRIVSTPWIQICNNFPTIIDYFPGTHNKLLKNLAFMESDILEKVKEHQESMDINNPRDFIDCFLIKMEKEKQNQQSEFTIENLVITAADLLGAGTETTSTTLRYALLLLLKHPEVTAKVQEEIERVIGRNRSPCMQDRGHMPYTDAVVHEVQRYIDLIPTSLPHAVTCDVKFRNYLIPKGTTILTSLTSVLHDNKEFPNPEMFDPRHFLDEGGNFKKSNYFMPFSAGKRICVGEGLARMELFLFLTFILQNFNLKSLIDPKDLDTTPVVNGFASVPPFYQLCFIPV

CS(=O)(=O)Nc1cccc(-c2cncnc2Nc2ccc(F)cc2)c1
AC50 [1]: 20 µM (inconclusive)

O=C(c1cnccn1)N1CCC2(CCCN(C(c3ccccc3)c3ccccc3)C2)CC1
AC50 ([2]; read-out: AC50): 25.1 µM (inconclusive)
AC50 [3]: 20 µM (inconclusive)

CCc1c(C(=O)NCc2ccc3c(c2)OCO3)[nH]c(C)c1C(C)=O
AC50 [1]: 20 µM (inconclusive)
AC50 [4]: 10 µM (inconclusive)

COc1ccc(-n2nnnc2-c2cn(C)nc2C(F)(F)F)cc1
AC50 [3]: 25.1 µM (inconclusive)
AC50 [4]: 28.2 µM (inconclusive)

CCCCC1C(=O)NC(=S)NC1=O
EC50 [5]: > 195 µM (not active)

COc1cccc(C(c2sc3nc(C)nn3c2O)N2CCN(C(=O)c3ccco3)CC2)c1 (stereo not drawn)
EC50 [5]: > 195 µM (not active)

CC(C)n1nnnc1SCC(=O)NCCc1ccccc1
AC50 [1]: 25.1 µM (inconclusive)

CCC(C)NCc1ccc(C(=O)OC)o1 (stereo not drawn)
AC50 ([2]; read-out: AC50): 15.8 µM (inconclusive)
AC50 [1]: 14.1 µM (inconclusive)
AC50 [4]: 0.447 µM (inconclusive)

CCCn1c(SCC(=O)c2c(C)[nH]c(C)c2C(=O)OCC)nc2ccccc21
EC50 [5]: > 195 µM (not active)

CCOC(=O)c1sc(NC(=O)CSc2nnc(-c3ccccc3)[nH]2)c(C#N)c1C
EC50 [5]: > 195 µM (not active)

COc1ccc2c(c1)CCc1c(C(=O)N3CCCCCC3)noc1-2
AC50 [1]: 15.8 µM (inconclusive)
AC50 [4]: 25.1 µM (inconclusive)

Cc1ccccc1NC(=O)CSc1nc(N2CCCCC2)nc(N2CCCCC2)n1
AC50 [3]: 3.55 µM (inconclusive)
AC50 [4]: 0.00891 µM (inconclusive)

CCOC(=O)C1CCCN(CCC(=O)Nc2cc(OC)ccc2OC)C1 (stereo not drawn)
EC50 [5]: > 195 µM (not active)

O=C(CNS(=O)(=O)c1ccc(Br)s1)N1CCC(N2CCCCC2)CC1
AC50 ([2]; read-out: AC50): 20 µM (inconclusive)

Cc1ccc(-c2cc(-c3nnc(SCC(=O)NC(C)C(C)C)n3N)c3ccccc3n2)cc1 (stereo not drawn)
AC50 ([2]; read-out: AC50): 15.8 µM (inconclusive)
AC50 [3]: 31.6 µM (inconclusive)

O=C(NCc1cc(F)cc2c1OCCO2)[C@H]1C[C@@H]1[C@H](NP(=O)(c1ccccc1)c1ccccc1)c1ccccc1
AC50 [6]: 3.98 µM (inconclusive)

CC1CN(C(=S)NC(=O)c2ccc([N+](=O)[O-])cc2)CC(C)O1 (stereo not drawn)
AC50 ([2]; read-out: AC50): 31.6 µM (inconclusive)
AC50 [3]: 12.6 µM (inconclusive)

Cc1cccc(NS(=O)(=O)c2cc3c(cc2C)NC(=O)CO3)c1
EC50 [5]: > 195 µM (not active)

CCCN[C@@H](C)C(=O)Nc1c(C)csc1C(=O)OC
AC50 [3]: 12.6 µM (inconclusive)

COc1ccc2[nH]cc(CCNc3ncncc3-c3ccc(C(=O)N(C)C)cc3)c2c1
AC50 [3]: 20 µM (inconclusive)

COC(=O)[C@@]1(Cc2ccccc2)[C@H]2c3cc(C(=O)N(C)C)n(CCN4CNCC4=O)c3C[C@H]2CN1C(=O)c1ccccc1
AC50 ([2]; read-out: AC50): 31.6 µM (inconclusive)
AC50 [3]: 5.01 µM (inconclusive)
AC50 [4]: 25.1 µM (inconclusive)

O=C(Nc1ccc2c(c1)nc1n2CCN(C2CCCCC2)C1)NC1CCCCC1
AC50 [6]: 15.8 µM (inconclusive)

COc1ccc(Br)cc1CN1CCN(CCO)CC1
EC50 [5]: > 195 µM (not active)

COc1ccc(O[C@H]2C=C[C@@H](c3ccccc3)O[C@H]2COC(=O)CC/C(C)=N\O[C@@H](C)c2cn([C@H]3COC[C@H]3O)nn2)cc1
AC50 [1]: 7.94 µM (inconclusive)

NC(=S)N/N=C1\CC(n2nnnc2-c2ccccc2Cl)C2COC1O2 (stereo not drawn)
EC50 [5]: > 195 µM (not active)

CCN=C(Nc1cccc(F)c1)SC1CC(=O)N(c2ccc(OC)cc2)C1=O (stereo not drawn)
AC50 [1]: 14.1 µM (inconclusive)

COc1ccc(C(=O)Nc2cccc(/C(C)=N/NC(=O)c3ccc([N+](=O)[O-])cc3)c2)cc1OC
AC50 ([2]; read-out: AC50): 31.6 µM (inconclusive)
AC50 [4]: 2.51 µM (inconclusive)

CCC(c1nnnn1CCOC)N1CCN(C(=O)c2ccco2)CC1 (stereo not drawn)
AC50 [6]: 28.2 µM (inconclusive)

O=C(NNC(=O)c1cccnc1)Nc1cccc2ccccc12
AC50 ([2]; read-out: AC50): 28.2 µM (inconclusive)
AC50 [3]: 14.1 µM (inconclusive)

CN=C(S)N(CCc1c(C)[nH]c2ccc(F)cc12)Cc1cccnc1
EC50 [5]: > 195 µM (not active)

CC(C)CC(=O)N1CCC(O)(CS(=O)(=O)Cc2ccc(Cl)cc2)CC1
AC50 [6]: 8.91 µM (inconclusive)

Cc1nnc(NC(=O)CCC(=O)NCc2cccs2)s1
AC50 ([2]; read-out: AC50): 22.4 µM (inconclusive)
AC50 [4]: 31.6 µM (inconclusive)

COc1ccc(N2CCN(C(CNC(=O)C(=O)NCc3ccncc3)c3ccco3)CC2)cc1 (stereo not drawn)
EC50 [5]: > 195 µM (not active)

CC(=O)c1c(O)cc(=O)n(-c2ccccc2)c1-c1ccc(C)cc1
AC50 [1]: 0.00501 µM (inconclusive)
AC50 [4]: 15.8 µM (inconclusive)

CO[C@H]1COC(=O)[C@@H](C)COC(=O)[C@@H](COCc2ccccc2)NC(=O)C/C=C\[C@H]1C
AC50 [6]: 3.98 µM (inconclusive)

c1ccc(Nc2nc(-c3ccc4c(c3)OCO4)nc3ccccc23)cc1
AC50 [1]: 39.8 µM (inconclusive)

CNc1nc(-c2ccccc2C(F)(F)F)nc2ccccc12
AC50 ([2]; read-out: AC50): 31.6 µM (inconclusive)
AC50 [1]: 20 µM (inconclusive)

CN(C)c1nc(NCc2ccccc2)nc(N/N=C/c2ccc(Cl)cc2Cl)n1
AC50 ([2]; read-out: AC50): 1 µM (inconclusive)

Cc1ccccc1NS(=O)(=O)c1cc(C(=O)Nc2cccc(N(C)S(C)(=O)=O)c2)ccc1C
AC50 [1]: 17.8 µM (inconclusive)
AC50 [3]: 17.8 µM (inconclusive)

CCOC(=O)c1cc(C(=O)OCC)cc(-n2cc(O)c(C(=O)OCC)n2)c1
AC50 [1]: 3.16 µM (inconclusive)

c1ccc(-c2ccccn2)nc1
AC50 [3]: 25.1 µM (inconclusive)

CN(C(=O)c1ccc(OC2CCN(Cc3ccccn3)CC2)cc1)C1CCCCC1
EC50 [5]: > 195 µM (not active)

NC(=O)c1ccc[n+](CC(=O)OCCC23CC4CC(CC(C4)C2)C3)c1
EC50 [5]: > 195 µM (not active)
AC50 [1]: 39.8 µM (inconclusive)

C=CCC1(C(=O)NCCO)CCN(C(=O)OC(C)(C)C)CC1
EC50 [5]: > 195 µM (not active)

CC(=O)Oc1ccccc1C(=O)Oc1ccccc1C(=O)O [DIPLOSALSALATE]
AC50 [3]: 12.6 µM (inconclusive)
AC50 [4]: 15.8 µM (inconclusive)

O=C(OCn1nnc2ccccc2c1=O)c1cc(-c2ccccc2)nc2ccccc12
EC50 [5]: > 195 µM (not active)

COc1cc([N+](=O)[O-])ccc1NC(=O)CCCOc1cccc(C)c1
AC50 [1]: 15.8 µM (inconclusive)

CCOC(=O)c1ccc(Oc2nc(NC)nc(Nc3ccccc3)n2)cc1
EC50 [5]: > 195 µM (not active)

Cc1ccc(NC(=S)N2CCN(CCN3C(=O)c4cccc5cccc(c45)C3=O)CC2)cc1
EC50 [7]: 0.855 µM (active)
EC50 [8]: > 60 µM (not active)
AC50 ([2]; read-out: AC50): 15.8 µM (inconclusive)
AC50 [3]: 20 µM (inconclusive)

COC(=O)[C@H]1C(=O)[C@H](C(=O)OC)[C@@H]2CC[C@H]1N2C
AC50 [3]: 0.794 µM (inconclusive)

NC(=O)COc1c(F)cc(SCCNS(=O)(=O)c2ccccc2)cc1F
AC50 [3]: 31.6 µM (inconclusive)
AC50 [4]: 31.6 µM (inconclusive)

NCCC(=O)NCCc1c[nH]cn1 [CARCININE]
AC50 [2]: inconclusive
AC50 [1]: 31.6 µM (inconclusive) and 10 µM (inconclusive)

CNC(=O)COC(=O)c1cc2c(C)nn(-c3ccc(F)cc3)c2s1
AC50 ([2]; read-out: AC50): 39.8 µM (inconclusive)
AC50 [4]: 1.12 µM (inconclusive)

COc1ccc(CC(C)Nc2cccc(SC)c2)cc1 (stereo not drawn)
EC50 [5]: > 195 µM (not active)

O=[N+]([O-])c1ccc(NN=C2c3ccccc3Cc3ccccc32)c([N+](=O)[O-])c1
AC50 [3]: 0.794 µM (inconclusive)

C/C(Cn1nc([N+](=O)[O-])cc1C)=N\NC(=O)c1ccc(O)cc1O
AC50 ([2]; read-out: AC50): 7.08 µM (inconclusive)
AC50 [3]: 25.1 µM (inconclusive)

O=C1CC(N2CCCCC2)C(=O)N1c1ccccc1 (stereo not drawn)
EC50 [5]: > 195 µM (not active)

O=C(NCCc1c[nH]c2ccccc12)[C@H]1C[C@@H]1[C@H](NP(=O)(c1ccccc1)c1ccccc1)c1ccccc1
AC50 [3]: 12.6 µM (inconclusive)

COCCCNC(=O)CC(NS(=O)(=O)c1ccc(C)cc1)c1ccc(OC)cc1 (stereo not drawn)
EC50 [5]: > 195 µM (not active)

O=C(N/N=C\c1c[nH]nc1-c1ccccc1)c1cccs1
EC50 [5]: > 195 µM (not active)

CCNc1ncc2nc(C)c(=O)n(Cc3cccc(OC)c3)c2n1
AC50 [1]: 25.1 µM (inconclusive)

c1cc(CN2CC3(CCNCC3)C2)ccn1
AC50 [1]: 39.8 µM (inconclusive)
